This note sets out measurements from patent publication US10751285B1, “Synthesis of C resorcinarene based novel amphiphilic supramolecular macrocycle as nano-scale drug loading system” (priority 2019, dated 2020).

A short description of this data set: Critical micelle concentration (CMC) by UV-visible spectrophotometer. The class given is physicochemical. Particulars: in methanol; absorbance at 283 nm; 0.001-0.09 mM range. As for the experimental part:
CMC of the synthesized resorcinarene based amphiphilic supramolecular macrocycle was investigated in methanol using UV-visible spectrophotometer. Amphiphile methanolic solutions in 0.001-0.09 mM range were read on UV-visible spectrophotometer, giving characteristic absorbance at 283 nm.

With `CCCCCCCCCCCCCCCCOc1ccc(C2c3cc(c(O)cc3O)C(c3ccc(OCCCCCCCCCCCCCCCC)cc3)c3cc(c(O)cc3O)C(c3ccc(OCCCCCCCCCCCCCCCC)cc3)c3cc(c(O)cc3O)C(c3ccc(OCCCCCCCCCCCCCCCC)cc3)c3cc2c(O)cc3O)cc1` (stereo not shown) [ASRM], the CMC was determined as 0.04 mM.
